The source of these data is PubChem BioAssay (NCI).

Among the test systems are DMS 114 small cell lung; SNB-78 CNS; MDA-MB-231 breast; MDA-N; PC-3 prostate; T-47D breast; DLD-1 colon.
Common to all, as to experiment: NCI-60 cell line screen, 48 h

The structures appear in SMILES notation.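 Step 1: Grow cells in 96-well plates. Step 2: Expose to compound for 48 hours at 5 concentrations. Step 3: Interpolate endpoints linearly; if unreached, use highest concentration. GI50 = concentration required for 50% inhibition of growth. TGI: total growth inhibition.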

In the case of `C=C1C(=O)C23C(CC(OC(C)=O)C1[C@@H]2OC(C)=O)C1(C)C(OC(C)=O)CCC(C)(C)C1C[C@@H]3OC(C)=O` (stereo partly specified), the TGI in the experiment with DMS 114 small cell lung was found to be 2.4 µM; in the experiment on SNB-78 CNS, 3.14 µM.
On to `COCCOC(=O)CCn1cc(F)c(=O)[nH]c1=O`, for which the GI50 in the experiment with MDA-MB-231 breast was over 150 µg/mL; with MDA-N it was 2.29 µg/mL; with PC-3 prostate, 108 µg/mL; in the experiment on T-47D breast, 73.4 µg/mL. In addition, the TGI in the experiment on MDA-MB-231 breast, with MDA-N, in the experiment with PC-3 prostate and in the experiment on T-47D breast was over 150 µg/mL throughout.
In the case of `N#CC(C#N)=C/C=C/c1cccc([N+](=O)[O-])c1`, the GI50 in the experiment with MDA-MB-231 breast was 1.74 µM; with PC-3 prostate, 2.09 µM; with T-47D breast it was 1.4 µM. The results for the TGI in the experiment on MDA-MB-231 breast, with PC-3 prostate and in the experiment on T-47D breast were 16 µM, 19.3 µM and 6.81 µM, respectively.
In the case of `O=C1CCCc2c(O)ccc(O)c21`, the TGI is over 100 µM in the experiment on DLD-1 colon, 74.9 µM in the experiment on DMS 114 small cell lung and over 100 µM in the experiment with SNB-78 CNS.
As to `Fc1cc(Nc2ccc3c(OCCCN4CCOCC4)cccc3n2)ccc1Cl`, in the experiment on PC-3 prostate, the GI50 was 2.08 µM and the TGI amounted to 5.83 µM. In the experiment with T-47D breast, the GI50 was 2.27 µM and the TGI was 7.16 µM.
Consider `CN(C)c1ccc(/C=N/Nc2ccc(-c3nc4ccccc4[nH]3)cc2)cc1`, for which the GI50 in the experiment with MDA-MB-231 breast is 13.4 µM; with PC-3 prostate it was 7.27 µM; in the experiment with T-47D breast, 8.95 µM. In addition, the TGI in the experiment on MDA-MB-231 breast is 42.1 µM; in the experiment with PC-3 prostate, over 50 µM; in the experiment with T-47D breast, 40.9 µM.
For `NC(=O)c1ccc(NC(=O)c2oc3ccccc3c2-c2cnn(-c3ccccc3)c2)cc1`, in the experiment with MDA-MB-231 breast, the GI50 was 4.65 µM and the TGI is over 100 µM.
As to `Fc1ccc(-c2c(-c3ccncc3)n(CCN3CCOCC3)c3cccnc23)cc1`, the GI50 in the experiment on MDA-MB-231 breast, with PC-3 prostate and in the experiment with T-47D breast was over 25 µM in each case. Further, the TGI in the experiment on MDA-MB-231 breast, in the experiment with PC-3 prostate and with T-47D breast was over 25 µM throughout.
`NC(=O)c1ccc(-c2c3ccccc3cc3c2ccc2ccccc23)cc1`: the GI50 was 3.91 µM in the experiment with MDA-MB-231 breast, 4.88 µM in the experiment with PC-3 prostate and 3.19 µM in the experiment on T-47D breast. In addition, the TGI in the experiment with MDA-MB-231 breast was 23.8 µM; in the experiment with PC-3 prostate it was 24.5 µM; in the experiment with T-47D breast, over 100 µM.
On to `O=C(N/N=C\c1cc(Cl)ccc1O)N/N=C/c1cc(Cl)ccc1O`, for which the GI50 in the experiment on MDA-MB-231 breast is 4.3 µM; in the experiment on PC-3 prostate it was 2.96 µM; in the experiment on T-47D breast, 2.32 µM. The TGI in the experiment on MDA-MB-231 breast, in the experiment with PC-3 prostate and with T-47D breast was over 100 µM in each case.
Regarding `CN1C=CN(Cc2ccc(-c3ccccn3)nc2)[CH-]1.CN1C=CN(Cc2ccc(-c3ccccn3)nc2)[CH-]1.[Au+3]`, the GI50 in the experiment on MDA-MB-231 breast was 2.64 µM; in the experiment with PC-3 prostate it was 0.922 µM; with T-47D breast, 1.17 µM. Further, the TGI in the experiment on MDA-MB-231 breast was 15 µM; in the experiment on PC-3 prostate, over 100 µM; with T-47D breast it was 3.07 µM.
For `COc1cc(SC)ccc1C(=O)N1CCCC(C)C1` (stereo unspecified), the GI50 with MDA-MB-231 breast, in the experiment with PC-3 prostate and with T-47D breast was over 100 µM throughout. For the same molecule, the TGI in the experiment with MDA-MB-231 breast, in the experiment on PC-3 prostate and in the experiment on T-47D breast was over 100 µM in each case.
Consider `Cc1[nH]nc(C(=O)N/N=C/c2cccs2)c1N=NN(C)C`, for which the results for the TGI in the experiment on MDA-MB-231 breast, in the experiment with PC-3 prostate and in the experiment with T-47D breast were 66.6 µM, over 100 µM and 41.3 µM, respectively.
With `COc1ccc(/C=C/CO)cc1OC`, the TGI in the experiment on DMS 114 small cell lung and in the experiment on SNB-78 CNS was over 100 µM throughout.
On to `C/C(=N\n1c(N)c(C#N)c(-c2ccc(Cl)cc2)c(C#N)c1=O)c1cccnc1`, for which the GI50 in the experiment with MDA-MB-231 breast, in the experiment with PC-3 prostate and in the experiment with T-47D breast was over 100 µM each time. The TGI in the experiment with MDA-MB-231 breast, with PC-3 prostate and in the experiment on T-47D breast was over 100 µM throughout.
`NC(=NC1C2CC3CC(C2)CC1C3)Nc1ccc(I)cc1` (stereo unspecified): the GI50 in the experiment on MDA-MB-231 breast was 3.31 µM; in the experiment on PC-3 prostate, 3.14 µM. In addition, the TGI with MDA-MB-231 breast is 11 µM; in the experiment on PC-3 prostate, 12.2 µM.
`COc1cc([N+](=O)[O-])c2ncccc2c1O`: the GI50 in the experiment on MDA-MB-231 breast is 26.1 µM; in the experiment with PC-3 prostate it was 6.54 µM; in the experiment on T-47D breast it was 27 µM. The TGI in the experiment on MDA-MB-231 breast, in the experiment with PC-3 prostate and with T-47D breast was over 100 µM in each case.
Regarding `CC(=O)OCC1OC(O[C@@H]2C[C@H]3C(C)(C)[C@H](OC(C)=O)CC[C@]3(C)[C@H]3CC[C@@H]4[C@]5(CC[C@@]4(C)[C@@]32C)O[C@@H]([C@H](O)C(C)(C)O)C[C@@H]5C)C(O)C(O)C1O` (stereo partly specified), the GI50 is 10.2 µM in the experiment on MDA-MB-231 breast, 7.08 µM in the experiment on MDA-N, 3.84 µM in the experiment on PC-3 prostate and 5.63 µM in the experiment on T-47D breast. Moreover, the TGI came out at 22.3 µM with MDA-MB-231 breast, 20.1 µM with MDA-N, 14.3 µM with PC-3 prostate and 18.4 µM in the experiment with T-47D breast.
As to `COc1cc(C(=O)c2c(-c3ccccc3)oc3ccccc23)cc(OC)c1O`, the GI50 was 4.24 µM with MDA-MB-231 breast, 3.47 µM in the experiment on PC-3 prostate and 2.14 µM in the experiment with T-47D breast. Also, the TGI in the experiment on MDA-MB-231 breast was 22.5 µM; in the experiment with PC-3 prostate, 15.7 µM; with T-47D breast, 31.8 µM.
With `CC(C)(CN1CCCCC1)C(=O)CC(SCCS(=O)(=O)O)c1ccc(Cl)c(Cl)c1` (stereo unspecified), the figures for the TGI with MDA-MB-231 breast, with MDA-N and in the experiment on PC-3 prostate were 4.82 µM, 8.4 µM and 17 µM, respectively.
For the molecule `CCOc1ccc(N2C(N)=NC(N)=NC2(C)C)cc1`, the GI50 was over 100 µM in the experiment on MDA-MB-231 breast, 45.7 µM in the experiment on PC-3 prostate and over 100 µM with T-47D breast. The TGI in the experiment with MDA-MB-231 breast, in the experiment on PC-3 prostate and in the experiment on T-47D breast was over 100 µM each time.
Take `CCN(CC)c1ccc(/C=N\NC(=O)c2cccc(Nc3ccnc(C(F)(F)F)c3)c2)c(O)c1`: the GI50 is 0.345 µM in the experiment with MDA-MB-231 breast, 0.646 µM with PC-3 prostate and 0.485 µM in the experiment on T-47D breast. In addition, the figures for the TGI with MDA-MB-231 breast, in the experiment with PC-3 prostate and with T-47D breast were over 43.1 µM, over 100 µM and over 100 µM, respectively.
